Data set [1] addresses Epidermal growth factor receptor (Homo sapiens, UniProt P00533, EX19DEL). In words: Inhibition of EGFR del19 (unknown origin) using flurogenic substrate in presence of ATP by HTRF assay. Background: In TR-FRET formats the signal depends on donor and acceptor labels being close together.
In data set [2] the target is Epidermal growth factor receptor (Homo sapiens, UniProt P00533, C797S/T790M). In words: Inhibition of EGFR T790M/C797S double mutant (unknown origin) using flurogenic substrate in presence of ATP by HTRF assay.
Data set [3] has as its target Epidermal growth factor receptor (Homo sapiens, UniProt P00533). The data set can be described thus: Inhibition of wild type EGFR (unknown origin) using flurogenic substrate in presence of ATP by HTRF assay.
Data set [4] can be described thus: Selectivity index, ratio of IC50 Inhibition of wild type EGFR (unknown origin) to IC50 for Inhibition of EGFR T790M/C797S double mutant (unknown origin).
The subject of data set [5] is NCI-H1975. In words: cells. In kind it is functional, cell-based. To be noted: Homo sapiens, NCI-H1975, 72 h.
The next data set concerns HCC827. In words: Antiproliferative activity against human HCC827 cells expressing EGFR del119 mutant assessed as inhibition in cell viability after 72 hrs by CCK8 assay. To be noted: HCC827, 72 h. In kind it is functional, cell-based. In general terms: Tetrazolium assays rely on reduction of a dye to a coloured formazan, in cell work by metabolically active cells.
The test system of another data set is A549. The data set can be described thus: Antiproliferative activity against human A549 cells expressing wild type EGFR assessed as inhibition in cell viability after 72 hrs by CCK8 assay. In kind it is functional, cell-based. Particulars: A549, 72 h.
The test system of data set [6] is NCI-H1299. In words: Antiproliferative activity against human NCI-H1299 cells expressing wild type EGFR assessed as inhibition in cell viability after 72 hrs by CCK8 assay. In kind it is functional, cell-based. To be noted: NCI-H1299, 72 h.
Data set [7] can be described thus: in vitro. To be noted: human.
The nature of data set [8]: in vitro. Particulars: human. The source holds these as a separate data set.
The subject of data set [9] is NCI-H1299. In words: Induction of cell cycle arrest in human NCI-H1299 cells assessed as accumulation at G0/G1 phase at 2.5 uM after 36 hrs by PI staining based flow cytometry analysis (reference value: 70.2%). In kind it is functional. (Flow cytometry measures light scatter and fluorescence of single cells or particles in a stream.)
Data set [10] deals with NCI-H1299. The data set can be described thus: Induction of cell cycle arrest in human NCI-H1299 cells assessed as accumulation at G2/M phase at 2.5 uM after 36 hrs by PI staining based flow cytometry analysis (reference value: 5.6%). Type of data set: functional.
For data set [11], the system named is NCI-H1299. In words: Induction of cell cycle arrest in human NCI-H1299 cells assessed as accumulation at S phase at 2.5 uM after 36 hrs by PI staining based flow cytometry analysis (reference value: 24.8%). Type of data set: functional.
Data set [12] deals with NCI-H1975. In words: Induction of cell cycle arrest in human NCI-H1975 cells assessed as accumulation at G0/G1 phase at 2.5 uM after 36 hrs by PI staining based flow cytometry analysis (reference value: 24.2%). In kind it is functional.
Data set [13] relates to NCI-H1975. In words: Induction of cell cycle arrest in human NCI-H1975 cells assessed as accumulation at G2/M phase at 2.5 uM after 36 hrs by PI staining based flow cytometry analysis (reference value: 43.1%). Type of data set: functional.
The test system of data set [14] is NCI-H1975. In words: Induction of cell cycle arrest in human NCI-H1975 cells assessed as accumulation at S phase at 2.5 uM after 36 hrs by PI staining based flow cytometry analysis (reference value: 32.7 %). In kind it is functional.
Data set [15] relates to NCI-H1299. In words: Induction of apoptosis in human NCI-H1299 cells assessed as increase in viable cells at 2.5 uM after 36 hrs by annexin-V-FITC/PI staining based flow cytometric analysis (reference value: 94.1%). Type of data set: functional.
The test system of data set [16] is NCI-H1299. The data set can be described thus: Induction of apoptosis in human NCI-H1299 cells assessed as increase in early apoptotic cells at 2.5 uM after 36 hrs by annexin-V-FITC/PI staining based flow cytometric analysis (reference value: 0.79%). Type of data set: functional.
In data set [17] the test system is NCI-H1299. The data set can be described thus: Induction of apoptosis in human NCI-H1299 cells assessed as increase in late apoptotic cells at 2.5 uM after 36 hrs by annexin-V-FITC/PI staining based flow cytometric analysis (reference value: 4.39%). In kind it is functional.
Data set [18] relates to NCI-H1299. The data set can be described thus: Induction of apoptosis in human NCI-H1299 cells assessed as increase in necrotic cells at 2.5 uM after 36 hrs by annexin-V-FITC/PI staining based flow cytometric analysis (reference value: 0.75%). In kind it is functional.
Data set [19] concerns NCI-H1975. The data set can be described thus: Induction of apoptosis in human NCI-H1975 cells assessed as increase in viable cells at 2.5 uM after 36 hrs by annexin-V-FITC/PI staining based flow cytometric analysis (reference value: 94.6%). In kind it is functional.
Data set [20] relates to NCI-H1975. In words: Induction of apoptosis in human NCI-H1975 cells assessed as increase in early apoptotic cells at 2.5 uM after 36 hrs by annexin-V-FITC/PI staining based flow cytometric analysis (reference value: 1.24%). Type of data set: functional.
The subject of data set [21] is NCI-H1975. The data set can be described thus: Induction of apoptosis in human NCI-H1975 cells assessed as increase in late apoptotic cells at 2.5 uM after 36 hrs by annexin-V-FITC/PI staining based flow cytometric analysis (reference value: 3.85%). In kind it is functional.
In data set [22] the test system is NCI-H1975. In words: Induction of apoptosis in human NCI-H1975 cells assessed as increase in necrotic cells at 2.5 uM after 36 hrs by annexin-V-FITC/PI staining based flow cytometric analysis (reference value: 0.35%). Type of data set: functional.

Epidermal growth factor receptor (Homo sapiens, UniProt P00533, EX19DEL), sequence (P00533 whole entry, looked up, stated change not applied): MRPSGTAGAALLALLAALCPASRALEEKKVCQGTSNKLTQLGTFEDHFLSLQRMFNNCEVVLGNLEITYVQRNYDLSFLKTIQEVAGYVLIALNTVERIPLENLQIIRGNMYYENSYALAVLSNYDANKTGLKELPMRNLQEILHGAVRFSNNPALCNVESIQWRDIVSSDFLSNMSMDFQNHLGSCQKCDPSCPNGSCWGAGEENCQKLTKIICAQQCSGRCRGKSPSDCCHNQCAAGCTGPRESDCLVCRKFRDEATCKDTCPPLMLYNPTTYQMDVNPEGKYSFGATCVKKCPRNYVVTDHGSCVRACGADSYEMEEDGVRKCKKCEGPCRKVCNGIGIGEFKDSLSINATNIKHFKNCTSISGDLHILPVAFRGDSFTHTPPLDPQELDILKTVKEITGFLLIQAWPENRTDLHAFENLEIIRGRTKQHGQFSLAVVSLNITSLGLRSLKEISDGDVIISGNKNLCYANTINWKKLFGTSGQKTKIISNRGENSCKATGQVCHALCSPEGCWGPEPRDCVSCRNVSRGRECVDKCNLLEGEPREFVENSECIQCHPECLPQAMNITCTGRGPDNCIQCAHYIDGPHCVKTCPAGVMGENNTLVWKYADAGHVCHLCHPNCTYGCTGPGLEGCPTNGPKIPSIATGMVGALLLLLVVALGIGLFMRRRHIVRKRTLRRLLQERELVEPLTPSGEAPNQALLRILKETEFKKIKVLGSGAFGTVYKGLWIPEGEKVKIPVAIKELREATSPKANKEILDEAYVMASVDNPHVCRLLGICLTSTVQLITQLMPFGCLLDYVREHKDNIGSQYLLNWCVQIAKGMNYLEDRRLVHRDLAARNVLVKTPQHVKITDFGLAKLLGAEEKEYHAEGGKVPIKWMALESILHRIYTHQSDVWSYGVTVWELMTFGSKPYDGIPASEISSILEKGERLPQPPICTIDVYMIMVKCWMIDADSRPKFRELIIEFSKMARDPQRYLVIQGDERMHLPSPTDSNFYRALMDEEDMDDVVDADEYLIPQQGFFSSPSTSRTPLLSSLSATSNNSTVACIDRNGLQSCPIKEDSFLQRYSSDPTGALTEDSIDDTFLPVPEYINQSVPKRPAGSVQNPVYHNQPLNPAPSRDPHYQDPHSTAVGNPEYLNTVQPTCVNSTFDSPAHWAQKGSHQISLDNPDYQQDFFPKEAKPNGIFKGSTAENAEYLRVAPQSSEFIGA
Epidermal growth factor receptor (Homo sapiens, UniProt P00533), sequence (P00533 whole entry): as the sequence (P00533 whole entry, looked up, stated change not applied) above
Epidermal growth factor receptor (Homo sapiens, UniProt P00533, C797S/T790M), sequence (P00533 25-1210 T790M/C797S limits assumed): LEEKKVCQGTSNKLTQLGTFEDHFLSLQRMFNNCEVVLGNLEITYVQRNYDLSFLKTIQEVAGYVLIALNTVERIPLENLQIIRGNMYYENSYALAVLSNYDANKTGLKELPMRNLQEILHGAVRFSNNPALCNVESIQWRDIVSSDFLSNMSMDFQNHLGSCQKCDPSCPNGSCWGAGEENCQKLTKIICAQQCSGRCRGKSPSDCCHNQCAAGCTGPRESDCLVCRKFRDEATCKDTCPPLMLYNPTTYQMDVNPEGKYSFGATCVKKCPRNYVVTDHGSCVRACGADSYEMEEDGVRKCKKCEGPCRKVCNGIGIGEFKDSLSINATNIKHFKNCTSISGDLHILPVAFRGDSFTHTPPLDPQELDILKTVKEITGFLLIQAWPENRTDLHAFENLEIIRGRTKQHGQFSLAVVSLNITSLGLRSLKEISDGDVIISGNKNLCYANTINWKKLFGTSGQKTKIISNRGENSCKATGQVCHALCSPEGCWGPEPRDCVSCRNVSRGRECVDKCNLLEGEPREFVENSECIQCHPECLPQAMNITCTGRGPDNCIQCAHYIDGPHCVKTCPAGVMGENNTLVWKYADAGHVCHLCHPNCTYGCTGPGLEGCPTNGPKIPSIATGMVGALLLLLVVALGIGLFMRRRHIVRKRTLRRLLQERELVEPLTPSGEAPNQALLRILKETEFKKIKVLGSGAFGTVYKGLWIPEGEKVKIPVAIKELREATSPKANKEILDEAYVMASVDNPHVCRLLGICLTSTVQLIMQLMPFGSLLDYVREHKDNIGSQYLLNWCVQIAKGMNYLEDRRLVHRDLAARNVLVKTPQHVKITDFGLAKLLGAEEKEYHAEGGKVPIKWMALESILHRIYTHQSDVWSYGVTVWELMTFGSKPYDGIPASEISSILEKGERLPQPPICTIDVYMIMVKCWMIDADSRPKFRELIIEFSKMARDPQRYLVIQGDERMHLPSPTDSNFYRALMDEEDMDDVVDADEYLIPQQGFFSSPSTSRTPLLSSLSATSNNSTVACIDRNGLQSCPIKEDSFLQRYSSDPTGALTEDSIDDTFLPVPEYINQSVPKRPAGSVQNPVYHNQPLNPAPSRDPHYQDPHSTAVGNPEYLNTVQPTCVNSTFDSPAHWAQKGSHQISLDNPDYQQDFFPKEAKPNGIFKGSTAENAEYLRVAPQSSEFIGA

With `C=CC(=O)Nc1cc(Nc2nccc(Nc3cn(C)c4ccccc34)n2)c(OC)cc1N(C)CCN(C)Cc1ccc(Br)cc1`, the half-inhibitory concentration (IC50) (as a rule, the concentration at which inhibition is half-maximal) in [1] was 143 nM; in [2], 8.13 nM; in data set [3] it was 2470 nM; in the data set on NCI-H1975 [5] it was 29.7 nM; in the data set on HCC827, 6460 nM; in the data set on A549 it was above 100000 nM. The IC50 with NCI-H1299 [6] is above 100000 nM. For the same molecule, the Ratio IC50 in data set [4] is 304. Also, the selectivity ratio in the data set “in vitro [7]” and in “in vitro [8]” was 2640 each time.

As for `C=CC(=O)Nc1cc(Nc2nccc(Nc3cn(C)c4ccccc34)n2)c(OC)cc1N(C)CCN(C)CC(=C)C`, the IC50 worked out at 64 nM in [1], 5.75 nM in [2] and 181 nM in [3]. Also, the Ratio IC50 in [4] worked out at 31.4.

`C=CC(=O)Nc1cc(Nc2nccc(Nc3cn(C)c4ccccc34)n2)c(OC)cc1N(C)CCN(C)C(=O)c1ccc(Br)cc1`: the IC50 is 301 nM in data set [1]; 12.5 nM in [2]; above 10000 nM in [3]; 37.9 nM in the data set on NCI-H1975 [5]; 7150 nM with HCC827; above 100000 nM with A549. In addition, the concentration for half-maximal inhibition (IC50) in the data set on NCI-H1299 [6] is above 100000 nM. In addition, the Ratio IC50 in data set [4] is above 797. Moreover, the selectivity ratio in “in vitro [7]” and in the data set “in vitro [8]” was 3370 in each case.

With `C=CC(=O)Nc1cc(Nc2nccc(-c3cn(C)c4ccccc34)n2)c(OC)cc1N(C)CCN(C)C` [OSIMERTINIB], the 50% inhibitory concentration (IC50) in the data set on HCC827 is 1.73 nM; in the data set on A549, 335 nM; in the data set with NCI-H1299 [6] it was 2840 nM. For the same molecule, the Activity in the data set with NCI-H1299 [9] was determined as 67.3%; in the data set on NCI-H1299 [10], 8.4%; in the data set on NCI-H1299 [11], 24.3%; with NCI-H1975 [12], 17.1%; with NCI-H1975 [13], 65.4%; with NCI-H1975 [14], 17.5%. Moreover, the Activity in the data set on NCI-H1299 [15] was found to be 90.7%; in the data set with NCI-H1299 [16], 1.47%; in the data set on NCI-H1299 [17], 7.44%; in the data set with NCI-H1299 [18], 0.43%; with NCI-H1975 [19], 41.1%; in the data set on NCI-H1975 [20], 40.8%. In addition, the Activity in the data set on NCI-H1975 [21] stood at 18.1%; in the data set on NCI-H1975 [22] it was 0.016%.

Consider `C=CC(=O)Nc1cc(Nc2nccc(Nc3cnn(CC)c3)n2)c(OC)cc1N(C)CCN(C)C`, for which the IC50 in [1] came to 18.7 nM; in data set [2], 8.02 nM; in data set [3], 101 nM. Also, the Ratio IC50 in [4] was 12.5.

Take `C=CC(=O)Nc1cc(Nc2nccc(Nc3ccn(C)n3)n2)c(OC)cc1N(C)CCN(C)CC(=O)OC`: the half-maximal inhibitory concentration (IC50) stood at 106 nM in data set [1], 42.4 nM in [2] and 952 nM in data set [3]. Besides, the Ratio IC50 in data set [4] stood at 22.5.

For `C=CC(=O)Nc1cc(Nc2nccc(Nc3cn(C)c4ccccc34)n2)c(OC)cc1N(C)CCN(C)C(=O)OC`, the IC50 stood at 213 nM in data set [1], 12.3 nM in [2] and 2910 nM in data set [3]. For the same molecule, the Ratio IC50 in data set [4] is 235.

For the molecule `C=CC(=O)Nc1cc(Nc2nccc(Nc3cn(C)nc3C)n2)c(OC)cc1N(C)CCN(C)C`, the half-maximal inhibitory concentration (IC50) in data set [1] is 11.6 nM; in data set [2], 5.65 nM; in [3] it was 71.3 nM. Also, in [4], the Ratio IC50 was 12.6.

Consider `C=CC(=O)Nc1cc(Nc2nccc(Nc3cn(C)c4ccccc34)n2)c(OC)cc1N(C)CCN(C)Cc1ccccc1`, for which the IC50 in the data set on NCI-H1975 [5] worked out at 4.02 nM; with HCC827 it was 117 nM; in the data set with A549 it was 2610 nM; with NCI-H1299 [6], 3980 nM.

Regarding `C=CC(=O)Nc1cc(Nc2nccc(Nc3cn(C)c4ccccc34)n2)c(OC)cc1N(C)CCN(C)C(=O)C=C`, the half-maximal inhibitory concentration (IC50) in data set [1] was 723 nM; in [2], 36.6 nM; in data set [3], above 10000 nM. In addition, the Ratio IC50 in data set [4] was above 273.

Take `C=CC(=O)Nc1cc(Nc2nccc(Nc3ccn(C)n3)n2)c(OC)cc1N(C)CCN(C)C`: the results for the half-inhibitory concentration (IC50) in data set [1], in data set [2] and in data set [3] were 12.6 nM, 6.2 nM and 96.5 nM, respectively. Moreover, in [4], the Ratio IC50 was found to be 15.6.

Consider `C#CCN(C)CCN(C)c1cc(OC)c(Nc2nccc(Nc3ccn(C)n3)n2)cc1NC(=O)C=C`, for which the IC50 came to 22.3 nM in data set [1], 8.58 nM in [2] and 50.8 nM in data set [3]. Moreover, in data set [4], the Ratio IC50 worked out at 5.92.

Regarding `C=CC(=O)Nc1cc(Nc2nccc(Nc3cnn(C)c3)n2)c(OC)cc1N(C)CCN(C)C`, the half-inhibitory concentration (IC50) in data set [1] was 54.3 nM; in [2] it was 21.4 nM; in data set [3], 495 nM. In [4], the Ratio IC50 was determined as 23.1.

Consider `C=CC(=O)Nc1cc(Nc2nccc(Nc3ccn(C)n3)n2)c(OC)cc1N(C)CCN(C)CC(=C)C`, for which the IC50 in [1] worked out at 625 nM; in data set [2], 397 nM; in [3] it was 3180 nM. The Ratio IC50 in data set [4] came out at 8.02.

As to `C=CCCN(C)CCN(C)c1cc(OC)c(Nc2nccc(Nc3cn(C)c4ccccc34)n2)cc1NC(=O)C=C`, the IC50 in data set [1] was determined as 13.1 nM; in [2], 2 nM; in [3], 42.7 nM; in the data set with NCI-H1975 [5], 2.01 nM; with HCC827 it was 24.7 nM; with A549, 1380 nM. In the data set with NCI-H1299 [6], the IC50 came out at 1770 nM. In data set [4], the Ratio IC50 was determined as 21.3. For the same molecule, the selectivity ratio came out at 687 in “in vitro [7]” and 881 in “in vitro [8]”.

Turning to `C=CC(=O)Nc1cc(Nc2nccc(Nc3cn(C)c4ccccc34)n2)c(OC)cc1N(C)CCN(C)CC(=O)OC`, the IC50 is 46.4 nM in [1]; 5.75 nM in [2]; 453 nM in data set [3]; 8.31 nM in the data set on NCI-H1975 [5]; 346 nM in the data set on HCC827; 5190 nM in the data set on A549. Further, in the data set with NCI-H1299 [6], the IC50 is 5300 nM. For the same molecule, the Ratio IC50 in data set [4] came out at 78.8. Further, the selectivity ratio worked out at 624 in “in vitro [7]” and 637 in “in vitro [8]”.

With `C=CC(=O)Nc1cc(Nc2nccc(Nc3ccn(C)n3)n2)c(OC)cc1N(C)CCN(C)C(=O)OC`, the IC50 was found to be 288 nM in [1], 502 nM in data set [2] and 4930 nM in data set [3]. In [4], the Ratio IC50 was found to be 9.84.

`C=CC(=O)Nc1cc(Nc2nccc(Nc3cn(C)c4ccccc34)n2)c(OC)cc1N(C)CCN(C)C(=O)C#CC`: the IC50 is 949 nM in [1], 58 nM in [2] and above 10000 nM in [3]. Moreover, the Ratio IC50 in [4] is above 172.

Values taken from ChEMBL document CHEMBL5046228 (Eur J Med Chem, 2022).
